{
  "source": "paper PMC5218480",
  "about": "(PLoS ONE, 2017)",
  "tested_on": "MV-4-11 cells",
  "assay": "Gene expression microarray analysis (Affymetrix PrimeView) and GSEA",
  "format": "cell-based, human",
  "set-up": "RFU PODN (11730768_x_at) / Fold change /veh PODN (11730768_x_at) / RFU LINC00158 (11744669_a_at) / Fold change /veh LINC00158 (11744669_a_at) / RFU DUSP10 (11751237_a_at) / Fold change /veh DUSP10 (11751237_a_at) / RFU ID3 (11757404_x_at) / Fold change /veh ID3 (11757404_x_at) / RFU PLEKHG5 (11737974_s_at) / Fold change /veh PLEKHG5 (11737974_s_at) / RFU LRRC4B (11730491_at) / Fold change /veh LRRC4B (11730491_at) / RFU GIMAP4 (11747438_a_at) / Fold change /veh GIMAP4 (11747438_a_at) / RFU KRT8 (11758183_x_at) / Fold change /veh KRT8 (11758183_x_at) / RFU CNN1 (11734310_a_at) / Fold change /veh CNN1 (11734310_a_at) / RFU VPS37D (11726825_at) / Fold change /veh VPS37D (11726825_at) / RFU C10orf10 (11716522_x_at) / Fold change /veh C10orf10 (11716522_x_at) / RFU KIR2DL2 /// KIR2DL4 /// KIR2DL5A /// KIR2DL5B /// KIR2DS1 /// KIR2DS2 /// KIR2DS3 /// KIR2DS4 /// KIR3DL3 /// KIR3DL3 /// KIR3DS1 (11738374_at) / Fold change /veh KIR2DL2 /// KIR2DL4 /// KIR2DL5A /// KIR2DL5B /// KIR2DS1 /// KIR2DS2 /// KIR2DS3 /// KIR2DS4 /// KIR3DL3 /// KIR3DL3 /// KIR3DS1 (11738374_at) / RFU C1QL1 (11718748_at) / Fold change /veh C1QL1 (11718748_at) / RFU TMPRSS4 (11747572_a_at) / Fold change /veh TMPRSS4 (11747572_a_at) / RFU HAMP (11756126_x_at) / Fold change /veh HAMP (11756126_x_at) / RFU RNFT2 (11725882_a_at) / Fold change /veh RNFT2 (11725882_a_at) / RFU NR4A2 (11747474_a_at) / Fold change /veh NR4A2 (11747474_a_at) / RFU ABCC12 (11746883_a_at) / Fold change /veh ABCC12 (11746883_a_at) / RFU TMEM136 (11760407_x_at) / Fold change /veh TMEM136 (11760407_x_at) / RFU CLDN22 /// WWC2 (11732394_at) / Fold change /veh CLDN22 /// WWC2 (11732394_at) / RFU HLA-DPB1 (11760878_x_at) / Fold change /veh HLA-DPB1 (11760878_x_at) / RFU SPINT1 (11716480_a_at) / Fold change /veh SPINT1 (11716480_a_at) / RFU GAP43 (11754022_s_at) / Fold change /veh GAP43 (11754022_s_at) / RFU A4GNT (11735810_at) / Fold change /veh A4GNT (11735810_at) / RFU PRB3 (11715151_x_at) / Fold change /veh PRB3 (11715151_x_at) / RFU TUBB4B (11761932_at) / Fold change /veh TUBB4B (11761932_at) / RFU CAPN14 (11732068_a_at) / Fold change /veh CAPN14 (11732068_a_at) / RFU TMCC2 (11721928_a_at) / Fold change /veh TMCC2 (11721928_a_at) / RFU IRGQ (11745062_a_at) / Fold change /veh IRGQ (11745062_a_at) / RFU FAM174B (11720279_a_at) / Fold change /veh FAM174B (11720279_a_at) / RFU TMPRSS4 (11748680_a_at) / Fold change /veh TMPRSS4 (11748680_a_at) / RFU FAM212B (11763350_a_at) / Fold change /veh FAM212B (11763350_a_at) / RFU PLEKHG5 (11743358_a_at) / Fold change /veh PLEKHG5 (11743358_a_at) / RFU ZSCAN30 (11745921_a_at) / Fold change /veh ZSCAN30 (11745921_a_at) / RFU CMKLR1 (11741424_a_at) / Fold change /veh CMKLR1 (11741424_a_at) / RFU LOC101060620 /// MAPK8IP1 (11723275_at) / Fold change /veh LOC101060620 /// MAPK8IP1 (11723275_at) / RFU SPTSSB (11747773_x_at) / Fold change /veh SPTSSB (11747773_x_at) / RFU PRSS12 (11739890_at) / Fold change /veh PRSS12 (11739890_at) / RFU BIN1 (11741810_x_at) / Fold change /veh BIN1 (11741810_x_at) / RFU WNT11 (11732464_a_at) / Fold change /veh WNT11 (11732464_a_at) / RFU C10orf10 (11716521_a_at) / Fold change /veh C10orf10 (11716521_a_at) / RFU C5orf56 (11738089_at) / Fold change /veh C5orf56 (11738089_at) / RFU CYB561 (11721691_x_at) / Fold change /veh CYB561 (11721691_x_at) / RFU ANKRD19P (11752326_a_at) / Fold change /veh ANKRD19P (11752326_a_at) / RFU OR2T12 /// OR2T33 /// OR2T8 (11738714_s_at) / Fold change /veh OR2T12 /// OR2T33 /// OR2T8 (11738714_s_at) / RFU VCAN (11748164_a_at) / Fold change /veh VCAN (11748164_a_at) / RFU JSRP1 (11732532_at) / Fold change /veh JSRP1 (11732532_at) / RFU KRTAP10-11 (11738290_x_at) / Fold change /veh KRTAP10-11 (11738290_x_at) / RFU MYO3A (11730013_a_at) / Fold change /veh MYO3A (11730013_a_at) / RFU EBF3 (11725865_a_at) / Fold change /veh EBF3 (11725865_a_at) / RFU CAMK2N1 (11719241_x_at) / Fold change /veh CAMK2N1 (11719241_x_at) / RFU C5orf56 (11738088_a_at) / Fold change /veh C5orf56 (11738088_a_at) / RFU OLFML3 (11715873_a_at) / Fold change /veh OLFML3 (11715873_a_at) / RFU LOC100653217 /// NTM (11731650_a_at) / Fold change /veh LOC100653217 /// NTM (11731650_a_at) / RFU MAPK11 (11762145_a_at) / Fold change /veh MAPK11 (11762145_a_at) / RFU FIZ1 (11724087_x_at) / Fold change /veh FIZ1 (11724087_x_at) / RFU OASL (11726364_x_at) / Fold change /veh OASL (11726364_x_at) / RFU SOX15 (11748057_x_at) / Fold change /veh SOX15 (11748057_x_at) / RFU CD79A (11719716_a_at) / Fold change /veh CD79A (11719716_a_at) / RFU HIST1H1D (11736915_at) / Fold change /veh HIST1H1D (11736915_at) / RFU CASKIN2 (11723855_a_at) / Fold change /veh CASKIN2 (11723855_a_at) / RFU LOC730098 (11760151_x_at) / Fold change /veh LOC730098 (11760151_x_at) / RFU OR4N2 (11742367_at) / Fold change /veh OR4N2 (11742367_at) / RFU PRRT2 (11749266_a_at) / Fold change /veh PRRT2 (11749266_a_at) / RFU SNX32 (11753110_a_at) / Fold change /veh SNX32 (11753110_a_at) / RFU CDHR5 (11726645_a_at) / Fold change /veh CDHR5 (11726645_a_at) / RFU RCAN1 (11760418_a_at) / Fold change /veh RCAN1 (11760418_a_at) / RFU FAM167A (11723789_a_at) / Fold change /veh FAM167A (11723789_a_at) / RFU FAM26E (11764081_at) / Fold change /veh FAM26E (11764081_at) / RFU ISYNA1 (11749810_s_at) / Fold change /veh ISYNA1 (11749810_s_at) / RFU ACY1 (11761880_at) / Fold change /veh ACY1 (11761880_at) / RFU 11764098_at / Fold change /veh 11764098_at / RFU SAMD14 (11745864_x_at) / Fold change /veh SAMD14 (11745864_x_at) / RFU NPB (11741838_a_at) / Fold change /veh NPB (11741838_a_at) / RFU TMPRSS6 (11731388_a_at) / Fold change /veh TMPRSS6 (11731388_a_at) / RFU KRTAP10-2 (11738614_at) / Fold change /veh KRTAP10-2 (11738614_at) / RFU ARHGAP8 /// PRR5-ARHGAP8 (11727945_x_at) / Fold change /veh ARHGAP8 /// PRR5-ARHGAP8 (11727945_x_at) / RFU KRTAP5-7 /// NADSYN1 (11734609_at) / Fold change /veh KRTAP5-7 /// NADSYN1 (11734609_at) / RFU RASL12 (11751679_a_at) / Fold change /veh RASL12 (11751679_a_at) / RFU CDKN2B (11736163_a_at) / Fold change /veh CDKN2B (11736163_a_at) / RFU PRF1 (11729649_at) / Fold change /veh PRF1 (11729649_at) / RFU, ZNF638 /// ZNF638-IT1 / Fold change vs veh, ZNF638 /// ZNF638-IT1 / RFU, PANK3 / Fold change vs veh, PANK3 / RFU, SH3YL1 / Fold change vs veh, SH3YL1 / RFU, ZEB2 / Fold change vs veh, ZEB2 / RFU, NRIP1 / Fold change vs veh, NRIP1 / RFU, PTTG1IP / Fold change vs veh, PTTG1IP / RFU, CAPN2 / Fold change vs veh, CAPN2 / RFU, MED14 / Fold change vs veh, MED14 / RFU, SNORA58 / Fold change vs veh, SNORA58 / RFU, C1orf63 / Fold change vs veh, C1orf63 / RFU, LRRFIP1 / Fold change vs veh, LRRFIP1 / RFU, NDUFAF7 / Fold change vs veh, NDUFAF7 / RFU, SLC12A2 / Fold change vs veh, SLC12A2 / RFU, IBTK / Fold change vs veh, IBTK / RFU, ESF1 / Fold change vs veh, ESF1 / Fold change vs veh, TMEM50B / RFU, TAOK1 / Fold change vs veh, TAOK1 / RFU, ACBD3 / Fold change vs veh, ACBD3 / RFU, TMA16 / Fold change vs veh, TMA16 / RFU, RWDD3 / Fold change vs veh, RWDD3 / RFU, BCAT1 / Fold change vs veh, BCAT1 / RFU, EDEM3 / Fold change vs veh, EDEM3 / RFU, TMEM33 / Fold change vs veh, TMEM33 / RFU, WDR75 / Fold change vs veh, WDR75 / RFU, AHCTF1 / Fold change vs veh, AHCTF1 / RFU, TFRC / Fold change vs veh, TFRC / RFU, ZDHHC17 / Fold change vs veh, ZDHHC17 / RFU, NOM1 / Fold change vs veh, NOM1 / RFU, ARL8B / Fold change vs veh, ARL8B / RFU, ZBTB11 / Fold change vs veh, ZBTB11 / RFU, TAMM41 / Fold change vs veh, TAMM41 / RFU, KIAA1704 /// LOC100996395 / Fold change vs veh, KIAA1704 /// LOC100996395 / RFU, ING1 / Fold change vs veh, ING1 / RFU, TRMT61B / Fold change vs veh, TRMT61B / RFU, FUBP3 / Fold change vs veh, FUBP3 / RFU, TP53 / Fold change vs veh, TP53 / RFU, TNKS2 / Fold change vs veh, TNKS2 / RFU, ZFP14 / Fold change vs veh, ZFP14 / RFU, ACTR2 / Fold change vs veh, ACTR2 / RFU, PPP3R1 / Fold change vs veh, PPP3R1 / RFU, PIK3R1 / Fold change vs veh, PIK3R1 / RFU, HNRNPA1 / Fold change vs veh, HNRNPA1 / RFU, RNF170 / Fold change vs veh, RNF170 / RFU, ZNF28 / Fold change vs veh, ZNF28 / RFU, RNGTT / Fold change vs veh, RNGTT / RFU, OGT / Fold change vs veh, OGT / RFU, BRD1 / Fold change vs veh, BRD1 / RFU, MARS / Fold change vs veh, MARS / RFU, ZNF655 / Fold change vs veh, ZNF655 / RFU, FAHD1 / Fold change vs veh, FAHD1 / RFU, BDP1 / Fold change vs veh, BDP1 / RFU, LRRCC1 / Fold change vs veh, LRRCC1 / RFU, ARID1A / Fold change vs veh, ARID1A / RFU, ZNF146 / Fold change vs veh, ZNF146 / RFU, ZNF330 / Fold change vs veh, ZNF330 / RFU, GPN3 / Fold change vs veh, GPN3 / RFU, C9orf123 / Fold change vs veh, C9orf123 / RFU, N4BP2L2 / Fold change vs veh, N4BP2L2 / RFU, ARFIP1 / Fold change vs veh, ARFIP1 / RFU, FAM179B / Fold change vs veh, FAM179B / RFU, BCL10 / Fold change vs veh, BCL10 / RFU, UHRF1BP1L / Fold change vs veh, UHRF1BP1L / RFU, BET1 / Fold change vs veh, BET1 / RFU, CNOT2 / Fold change vs veh, CNOT2 / RFU, ZNF268 / Fold change vs veh, ZNF268 / Fold change vs veh, ZNF507 / RFU, DGCR2 / Fold change vs veh, DGCR2 / RFU, WDSUB1 / Fold change vs veh, WDSUB1 / Fold change vs veh, HSP90B1 /// MIR3652 / RFU, ADSS / Fold change vs veh, ADSS / RFU, GK / Fold change vs veh, GK / RFU, ZNF148 / Fold change vs veh, ZNF148 / RFU, TAF9 / Fold change vs veh, TAF9 / RFU, SLC1A5 / Fold change vs veh, SLC1A5 / RFU, SLMO2 / Fold change vs veh, SLMO2 / RFU, ABCC4 / Fold change vs veh, ABCC4 / RFU, LOC101060439 /// RAP1B / Fold change vs veh, LOC101060439 /// RAP1B / RFU, RFX7 / Fold change vs veh, RFX7 / RFU, GTPBP10 / Fold change vs veh, GTPBP10 / RFU, CNEP1R1 / Fold change vs veh, CNEP1R1 / RFU, BIVM-ERCC5 /// ERCC5 / Fold change vs veh, BIVM-ERCC5 /// ERCC5 / RFU, ILF3 / Fold change vs veh, ILF3 / RFU 11762660_at / Fold change /veh 11762660_at / RFU VCAN (11757783_s_at) / Fold change /veh VCAN (11757783_s_at) / RFU DDX43 (11728927_at) / Fold change /veh DDX43 (11728927_at) / RFU KRT8 (11758188_x_at) / Fold change /veh KRT8 (11758188_x_at) / RFU NKD1 (11759106_at) / Fold change /veh NKD1 (11759106_at) / RFU SRD5A1 (11742802_a_at) / Fold change /veh SRD5A1 (11742802_a_at) / RFU TPSAB1 /// TPSB2 (11721975_s_at) / Fold change /veh TPSAB1 /// TPSB2 (11721975_s_at) / RFU GSTM3 (11746129_a_at) / Fold change /veh GSTM3 (11746129_a_at) / RFU IL23R (11737362_x_at) / Fold change /veh IL23R (11737362_x_at) / RFU TMEM51 (11727254_a_at) / Fold change /veh TMEM51 (11727254_a_at) / RFU PIWIL2 (11732686_x_at) / Fold change /veh PIWIL2 (11732686_x_at) / RFU ORM1 (11744905_x_at) / Fold change /veh ORM1 (11744905_x_at) / RFU CCDC152 (11743942_at) / Fold change /veh CCDC152 (11743942_at) / RFU ECM1 (11717891_a_at) / Fold change /veh ECM1 (11717891_a_at) / RFU IL23R (11748794_a_at) / Fold change /veh IL23R (11748794_a_at) / RFU TNFAIP8L3 (11732012_x_at) / Fold change /veh TNFAIP8L3 (11732012_x_at) / RFU MBOAT4 (11741988_at) / Fold change /veh MBOAT4 (11741988_at) / RFU 11764193_at / Fold change /veh 11764193_at / RFU TMEM53 (11763286_at) / Fold change /veh TMEM53 (11763286_at) / RFU MAGEB2 (11727129_at) / Fold change /veh MAGEB2 (11727129_at) / RFU TMEM200A (11744735_a_at) / Fold change /veh TMEM200A (11744735_a_at) / RFU CCDC152 (11751479_a_at) / Fold change /veh CCDC152 (11751479_a_at) / RFU FAM211A (11726209_a_at) / Fold change /veh FAM211A (11726209_a_at) / RFU RGS16 (11746705_a_at) / Fold change /veh RGS16 (11746705_a_at) / RFU VCAN (11755009_s_at) / Fold change /veh VCAN (11755009_s_at) / RFU RHOB (11743442_s_at) / Fold change /veh RHOB (11743442_s_at) / RFU RGS16 (11720943_a_at) / Fold change /veh RGS16 (11720943_a_at) / RFU RGS16 (11720944_at) / Fold change /veh RGS16 (11720944_at) / RFU, VPS4B / Fold change vs veh, VPS4B / RFU, CREB1 / Fold change vs veh, CREB1 / RFU, DNAJC13 / Fold change vs veh, DNAJC13 / RFU, GNAQ / Fold change vs veh, GNAQ / RFU, CDK5R1 / Fold change vs veh, CDK5R1 / RFU, ZRANB3 / Fold change vs veh, ZRANB3 / RFU, CUL4A / Fold change vs veh, CUL4A / RFU, CCNY / Fold change vs veh, CCNY / RFU, UFL1 / Fold change vs veh, UFL1 / RFU, COG3 / Fold change vs veh, COG3 / RFU, DIAPH2 / Fold change vs veh, DIAPH2 / RFU, SKA2 / Fold change vs veh, SKA2 / RFU, AFF3 / Fold change vs veh, AFF3 / RFU, LMF1 / Fold change vs veh, LMF1 / RFU, IPO11 / Fold change vs veh, IPO11 / RFU, DFFB / Fold change vs veh, DFFB / RFU, FOXP1 / Fold change vs veh, FOXP1 / RFU, CARD8 / Fold change vs veh, CARD8 / RFU, STRN3 / Fold change vs veh, STRN3 / RFU, ADK / Fold change vs veh, ADK / RFU, RASSF2 / Fold change vs veh, RASSF2 / RFU, WIPF1 / Fold change vs veh, WIPF1 / RFU, LARP1B / Fold change vs veh, LARP1B / RFU, RASA1 / Fold change vs veh, RASA1 / RFU, RB1 / Fold change vs veh, RB1 / RFU, PPFIA1 / Fold change vs veh, PPFIA1 / RFU, MAT2A / Fold change vs veh, MAT2A / RFU, CCT5 / Fold change vs veh, CCT5 / RFU, WDR92 / Fold change vs veh, WDR92 / RFU, CUX1 / Fold change vs veh, CUX1 / RFU, TTC7A / Fold change vs veh, TTC7A / RFU, TMEM135 / Fold change vs veh, TMEM135 / RFU, DEPTOR / Fold change vs veh, DEPTOR / RFU, CPM / Fold change vs veh, CPM / RFU, DNAJB6 / Fold change vs veh, DNAJB6 / RFU, CACNA2D3 / Fold change vs veh, CACNA2D3 / RFU, DTX4 / Fold change vs veh, DTX4 / RFU, TFCP2 / Fold change vs veh, TFCP2 / RFU, GMCL1 /// GMCL1P1 / Fold change vs veh, GMCL1 /// GMCL1P1 / RFU, AEBP2 / Fold change vs veh, AEBP2 / RFU, SNHG1 /// SNORD22 /// SNORD25 /// SNORD26 /// SNORD27 /// SNORD28 /// SNORD29 /// SNORD31 / Fold change vs veh, SNHG1 /// SNORD22 /// SNORD25 /// SNORD26 /// SNORD27 /// SNORD28 /// SNORD29 /// SNORD31 / Fold change (Aza/veh), C12orf56 (ProbeSet 11735607_a_at) / Fold change (ACY-1035/veh), C12orf56 (ProbeSet 11735607_a_at) / Fold change (Aza/veh), FGFR1OP (ProbeSet 11751329_s_at) / Fold change (ACY-1035/veh), FGFR1OP (ProbeSet 11751329_s_at) / Fold change (Aza/veh), VPS36 (ProbeSet 11739960_a_at) / Fold change (ACY-1035/veh), VPS36 (ProbeSet 11739960_a_at) / RFU SYPL1 (11715823_x_at) / Fold change /veh SYPL1 (11715823_x_at) / RFU IGFBP7 (11715501_s_at) / Fold change /veh IGFBP7 (11715501_s_at) / RFU REEP3 (11722064_at) / Fold change /veh REEP3 (11722064_at) / RFU IGLL1 (11728026_x_at) / Fold change /veh IGLL1 (11728026_x_at): dose or concentration left out as unconfirmed",
  "conditions": "ProbeSet 11721559_s_at; LIST B",
  "data": [
    {"smiles": "Nc1ccc(-c2cccs2)cc1NC(=O)c1ccc2c(c1)cc(C1CC1)n2CCN1CCOCC1", "note": "[ACY-1035]", "values": [
      {"measurement": "Fold change vs veh, ZNF638 /// ZNF638-IT1", "value": 0.85}
    ]}
  ]
}
